Measurements published in patent US6706663B2, “Herbicidal 3-heterocyclic substituted benzisothiazole and benzisoxazole compounds” (Wyeth, priority 2000, dated 2004).

Key:
[1] = test system: AMBEL (Ambrosia artemisifolia); experiment: Preemergence herbicidal evaluation; type: in vivo, L.; details: preemergence, rated 4-5 weeks after treatment
Summary of the method: (§1)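 Scores (0–9) reflect visual comparison with control plants for stand, vigor, malformation, size and chlorosis. Seeds in potting soil received a post-planting spray of compound in aqueous acetone and grew in a greenhouse until assessment 4–5 weeks later.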

[2] = test system: CASOB (Cassia obtusifolia); experiment: Postemergence herbicidal evaluation; type: in vivo, L.; details: postemergence
Summary of the method: (§2)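 Seedlings grown about two weeks in flats, sprayed, then kept under standard greenhouse care. Rated visually 4–5 weeks after treatment on a 0–9 scale (stand, vigour, malformation, size, chlorosis, overall appearance) relative to untreated control; repeat tests averaged.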

[3] = test system: AMBEL (Ambrosia artemisifolia); experiment: Postemergence herbicidal evaluation; type: in vivo, L.; details: postemergence
Summary of the method: as §2

[4] = test system: CHEAL (Chenopodium album); experiment: Postemergence herbicidal evaluation; type: in vivo, L.; details: postemergence
Summary of the method: as §2

[5] = test system: ECHCG (Echinochloa crus-galli); experiment: Postemergence herbicidal evaluation; type: in vivo, (L.) Beau; details: postemergence
Summary of the method: as §2

[6] = test system: GALAP (Galium aparine); experiment: Preemergence herbicidal evaluation; type: in vivo; details: preemergence, rated 4-5 weeks after treatment
Summary of the method: as §1

[7] = test system: MOOVA (Monochoria vaginalis); experiment: Flooded paddy, preemergence weed control; type: in vivo, Presl.; details: rated 3-4 weeks after treatment, 0-9 rating scale
Summary of the method: (§3)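 Silt loam, sowing depth ≤0.5 cm; permanent flood 1.5–3 cm above soil; greenhouse culture after treatment. Readout: 0-9 visual scale (stand, vigor, malformation, size, chlorosis, appearance) vs control.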

[8] = test system: GALAP (Galium aparine); experiment: Postemergence herbicidal evaluation; type: in vivo; details: postemergence
Summary of the method: as §2

[9] = test system: ZEAMX (Corn, Field); experiment: Preemergence herbicidal evaluation; type: in vivo, Zea mays, L.; details: preemergence, rated 4-5 weeks after treatment
[10] = test system: ZEAMX (Corn, Field); experiment: Postemergence herbicidal evaluation; type: in vivo, Zea mays, L.; details: postemergence
Summary of the method: as §2

[11] = test system: IPOHE (Ipomoea hederacea); experiment: Preemergence herbicidal evaluation; type: in vivo, (L.) Jacq.; details: preemergence, rated 4-5 weeks after treatment
[12] = test system: CYPIR (Cyperus iria); experiment: Flooded paddy, preemergence weed control; type: in vivo; details: rated 3-4 weeks after treatment, 0-9 rating scale
Summary of the method: as §3

[13] = test system: ABUTH (Abutilon theophrasti); experiment: Preemergence herbicidal evaluation; type: in vivo, Medic.; details: preemergence, rated 4-5 weeks after treatment
[14] = test system: TRZAWR (Wheat, Winter, cv Riband); experiment: Postemergence herbicidal evaluation; type: in vivo, Triticum aestivum; details: postemergence
Summary of the method: as §2

[15] = test system: GLXMA (Soybean); experiment: Preemergence herbicidal evaluation; type: in vivo, Glycine max, (L.) Merr.; details: preemergence, rated 4-5 weeks after treatment
[16] = test system: IPOHE (Ipomoea hederacea); experiment: Postemergence herbicidal evaluation; type: in vivo, (L.) Jacq.; details: postemergence
Summary of the method: as §2

[17] = test system: SAGPY (Sagittaria pygmaea); experiment: Flooded paddy, preemergence weed control; type: in vivo, L.; details: rated 3-4 weeks after treatment, 0-9 rating scale
Summary of the method: as §3

[18] = test system: ABUTH (Abutilon theophrasti); experiment: Postemergence herbicidal evaluation; type: in vivo, Medic.; details: postemergence
Summary of the method: as §2

[19] = test system: ORYSAT (Rice, Tebonnet); experiment: Postemergence herbicidal evaluation; type: in vivo, Oryza sativa, (L.) Tebonnet; details: postemergence
Summary of the method: as §2

[20] = test system: ECHCG (Echinochloa crus-galli); experiment: Preemergence herbicidal evaluation; type: in vivo, (L.) Beau; details: preemergence, rated 4-5 weeks after treatment
Summary of the method: as §1

[21] = test system: ECHORC (Echinochloa oryzoides); experiment: Flooded paddy, preemergence weed control; type: in vivo, Echinochloa oryzoides (Ard.) Fritsch.; details: rated 3-4 weeks after treatment, 0-9 rating scale
Summary of the method: as §3

[22] = test system: ORYSAT (Rice, Tebonnet); experiment: Flooded paddy, post-transplant rice tolerance; type: in vivo, Oryza sativa, (L.) Tebonnet; details: flooded paddy, post-transplant rice, rated 3-4 weeks after treatment, 0-9 rating scale
Summary of the method: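 Scores (0-9) reflect visual injury relative to untreated plants in flooded silt loam. Each pot held two transplanted ten-day-old seedlings under 1.5 to 3 cm standing water in the greenhouse.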

[23] = test system: GLXMAW (Soybean, Williams); experiment: Postemergence herbicidal evaluation; type: in vivo, Glycine max, (L.) Merr. cv Williams; details: postemergence
Summary of the method: as §2

Cn1c(C(F)(F)F)cc(=O)n(-c2ccc3snc(-c4nc5ccccc5[nH]c4=O)c3c2)c1=O [Compound 90, 3-[3-(3,4-dihydro-3-oxo-2-quinoxalinyl)-1,2-benzisothiazol-5-yl]-1-methyl-6-(trifluoromethyl)uracil]
Preemergence herbicidal rating AMBEL ([1]; rate 0.0620 kg/ha): 0.0
Preemergence herbicidal rating AMBEL ([1]; rate 0.1250 kg/ha): 1.5
Preemergence herbicidal rating AMBEL ([1]; rate 0.2500 kg/ha): 3.5
CASOB herbicidal rating ([2]; rate 0.0320 kg/ha): 5.0
CASOB herbicidal rating ([2]; rate 0.0620 kg/ha): 5.0
CASOB herbicidal rating ([2]; rate 0.1250 kg/ha): 5.0
AMBEL herbicidal rating ([3]; rate 0.0320 kg/ha): 6.5
AMBEL herbicidal rating ([3]; rate 0.0620 kg/ha): 6.5
AMBEL herbicidal rating ([3]; rate 0.1250 kg/ha): 9.0
CHEAL herbicidal rating ([4]; rate 0.0320 kg/ha): 9.0
CHEAL herbicidal rating ([4]; rate 0.0620 kg/ha): 9.0
CHEAL herbicidal rating ([4]; rate 0.1250 kg/ha): 9.0
ECHCG herbicidal rating ([5]; rate 0.0320 kg/ha): 2.0
ECHCG herbicidal rating ([5]; rate 0.0620 kg/ha): 3.0
ECHCG herbicidal rating ([5]; rate 0.1250 kg/ha): 4.0
Preemergence herbicidal rating GALAP ([6]; rate 0.0620 kg/ha): 0.0
Preemergence herbicidal rating GALAP ([6]; rate 0.1250 kg/ha): 0.0
Preemergence herbicidal rating GALAP ([6]; rate 0.2500 kg/ha): 3.0
MOOVA herbicidal rating ([7]; rate 0.0320 kg/ha): 0.0
MOOVA herbicidal rating ([7]; rate 0.1250 kg/ha): 0.0
GALAP herbicidal rating ([8]; rate 0.0320 kg/ha): 4.0
GALAP herbicidal rating ([8]; rate 0.0620 kg/ha): 4.0
GALAP herbicidal rating ([8]; rate 0.1250 kg/ha): 5.0
Preemergence herbicidal rating ZEAMX ([9]; rate 0.0620 kg/ha): 0.0
Preemergence herbicidal rating ZEAMX ([9]; rate 0.1250 kg/ha): 0.0
Preemergence herbicidal rating ZEAMX ([9]; rate 0.2500 kg/ha): 0.0
ZEAMX herbicidal rating ([10]; rate 0.0320 kg/ha): 3.3
ZEAMX herbicidal rating ([10]; rate 0.0620 kg/ha): 3.3
ZEAMX herbicidal rating ([10]; rate 0.1250 kg/ha): 2.5
Preemergence herbicidal rating IPOHE ([11]; rate 0.0620 kg/ha): 0.0
Preemergence herbicidal rating IPOHE ([11]; rate 0.1250 kg/ha): 0.0
Preemergence herbicidal rating IPOHE ([11]; rate 0.2500 kg/ha): 1.5
CYPIR herbicidal rating ([12]; rate 0.0320 kg/ha): 0.0
CYPIR herbicidal rating ([12]; rate 0.1250 kg/ha): 0.0
Preemergence herbicidal rating ABUTH ([13]; rate 0.0620 kg/ha): 0.0
Preemergence herbicidal rating ABUTH ([13]; rate 0.1250 kg/ha): 3.5
Preemergence herbicidal rating ABUTH ([13]; rate 0.2500 kg/ha): 9.0
TRZAWR herbicidal rating ([14]; rate 0.0320 kg/ha): 2.8
TRZAWR herbicidal rating ([14]; rate 0.0620 kg/ha): 2.8
TRZAWR herbicidal rating ([14]; rate 0.1250 kg/ha): 2.0
Preemergence herbicidal rating GLXMA ([15]; rate 0.0620 kg/ha): 0.0
Preemergence herbicidal rating GLXMA ([15]; rate 0.1250 kg/ha): 0.0
Preemergence herbicidal rating GLXMA ([15]; rate 0.2500 kg/ha): 0.0
IPOHE herbicidal rating ([16]; rate 0.0320 kg/ha): 6.5
IPOHE herbicidal rating ([16]; rate 0.0620 kg/ha): 8.0
IPOHE herbicidal rating ([16]; rate 0.1250 kg/ha): 9.0
SAGPY herbicidal rating ([17]; rate 0.0320 kg/ha): 0.0
SAGPY herbicidal rating ([17]; rate 0.1250 kg/ha): 0.0
ABUTH herbicidal rating ([18]; rate 0.0320 kg/ha): 7.5
ABUTH herbicidal rating ([18]; rate 0.0620 kg/ha): 7.5
ABUTH herbicidal rating ([18]; rate 0.1250 kg/ha): 9.0
ORYSAT herbicidal rating ([19]; rate 0.0320 kg/ha): 2.0
ORYSAT herbicidal rating ([19]; rate 0.0620 kg/ha): 2.5
ORYSAT herbicidal rating ([19]; rate 0.1250 kg/ha): 2.0
Preemergence herbicidal rating ECHCG ([20]; rate 0.0620 kg/ha): 0.0
Preemergence herbicidal rating ECHCG ([20]; rate 0.1250 kg/ha): 0.0
Preemergence herbicidal rating ECHCG ([20]; rate 0.2500 kg/ha): 1.0
ECHORC herbicidal rating ([21]; rate 0.0320 kg/ha): 0.0
ECHORC herbicidal rating ([21]; rate 0.1250 kg/ha): 0.0
ORYSAT herbicidal rating (transplanted rice tolerance) ([22]; rate 0.0320 kg/ha): 0.0
ORYSAT herbicidal rating (transplanted rice tolerance) ([22]; rate 0.1250 kg/ha): 0.0
GLXMAW herbicidal rating ([23]; rate 0.0320 kg/ha): 6.0
GLXMAW herbicidal rating ([23]; rate 0.0620 kg/ha): 6.3
GLXMAW herbicidal rating ([23]; rate 0.1250 kg/ha): 6.5
